Experimental findings from patent US6878722B2, “Substituted cycloalkyl P1′ hepatitis C virus inhibitors” (Bristol-Myers Squibb Company, priority 2002, dated 2005) are described below.

Test [1] deals with T1, HCV NS3/4A protease complex (BMS strain, genotype 1a) (Hepatitis C virus genotype 1a, UniProt P27958, C1454S).
T1 construct: DNA encoding the recombinant HCV NS3/4A protease complex (amino acids 1027 to 1711) for these strains; inferred from the pET21b vector and Ni-NTA purification; made in house; host or cells: Escherichia coli BL21 (DE3), pET21b
The test can be described thus: Recombinant HCV NS3/4A protease complex FRET peptide assay, BMS strain. The format is biochemical. The gist of the method: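 Recombinant NS3/4A complex (aa 1027–1711) with C-terminal three-lysine tail, C1711G and C1454S, expressed in E. coli BL21(DE3) and purified by Ni-NTA then Superdex-S200. Inhibition of the complex from each strain measured in vitro by FRET peptide cleavage.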

For test [2], the target named is T2, human sputum elastase (HS) (Homo sapiens, UniProt P08246).
T2 construct: purchased Sigma
T2 sequence (P08246 30-267): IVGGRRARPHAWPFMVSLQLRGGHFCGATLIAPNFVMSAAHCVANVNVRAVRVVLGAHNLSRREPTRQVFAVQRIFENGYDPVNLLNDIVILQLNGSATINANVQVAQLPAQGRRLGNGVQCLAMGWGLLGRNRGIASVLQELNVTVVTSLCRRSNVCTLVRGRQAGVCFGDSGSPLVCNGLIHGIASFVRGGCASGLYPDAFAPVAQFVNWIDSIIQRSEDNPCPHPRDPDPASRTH
Briefly: Specificity assay, human sputum elastase. The format is biochemical. To be noted: 2 hr pre-incubation.
Method: The specificities of compounds of the present invention were determined against a variety of serine proteases: human sputum elastase (HS), porcine pancreatic elastase (PPE) and human pancreatic chymotrypsin and one cysteine protease: human liver cathepsin B. In all cases a 96-well plate format protocol using colorimetric p-nitroaniline (pNA) substrate specific for each enzyme was used as described previously (Patent WO 00/09543) with some modifications to the serine protease assays.
Each assay included a 2 hr enzyme-inhibitor pre-incubation at room temperature followed by addition of substrate and hydrolysis to ˜30% conversion as measured on a Spectramax Pro microplate reader. Compound concentrations varied from 100 to 0.4 μM depending on their potency. […]
The percentage of inhibition was calculated using the formula: [1−((UVinh−UVblank)/(UVctl−UVblank))]×100 […]

T1 sequence (P27958 1658-1714, looked up, stated change not applied): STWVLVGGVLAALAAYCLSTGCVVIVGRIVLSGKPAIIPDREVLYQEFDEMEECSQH
T1 sequence (P27958 1027-1657, looked up, stated change not applied): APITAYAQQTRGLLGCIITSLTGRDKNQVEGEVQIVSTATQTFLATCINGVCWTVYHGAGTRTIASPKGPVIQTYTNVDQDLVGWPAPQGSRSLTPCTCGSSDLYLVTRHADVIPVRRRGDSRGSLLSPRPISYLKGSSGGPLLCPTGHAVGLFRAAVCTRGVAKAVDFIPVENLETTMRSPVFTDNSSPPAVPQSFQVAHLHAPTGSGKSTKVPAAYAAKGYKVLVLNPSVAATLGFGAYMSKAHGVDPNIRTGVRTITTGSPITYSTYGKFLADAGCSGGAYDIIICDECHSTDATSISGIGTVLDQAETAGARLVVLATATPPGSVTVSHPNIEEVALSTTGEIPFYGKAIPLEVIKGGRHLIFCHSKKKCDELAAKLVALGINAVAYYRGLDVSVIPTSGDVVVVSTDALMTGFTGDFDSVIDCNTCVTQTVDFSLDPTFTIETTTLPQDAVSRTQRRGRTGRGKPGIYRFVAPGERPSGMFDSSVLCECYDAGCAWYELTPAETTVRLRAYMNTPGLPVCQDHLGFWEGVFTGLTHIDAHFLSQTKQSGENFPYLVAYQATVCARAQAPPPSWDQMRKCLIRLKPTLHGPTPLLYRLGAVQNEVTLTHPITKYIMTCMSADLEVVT

A word on the IC50: it is the point on the concentration scale where inhibition reaches its midpoint. Consider `C=CC1C[C@]1(NC(=O)[C@@H]1C[C@@H](Oc2cc(-c3ccccc3)nc3cc(OC)ccc23)CN1C(=O)[C@@H](NC(=O)OC(C)(C)C)C(C)(C)C)C(=O)NS(=O)(=O)C1(C)CC1` (stereo in doubt) [Compound 1, (1-{4-(7-Methoxy-2-phenylquinolin-4-yloxy)-2-[1-(1-methylcyclopropanesulfonylaminocarbonyl)-2-vinylcyclopropylcarbamoyl]pyrrolidine-1-carbonyl}-2,2-dimethylpropyl)carbamic acid tert-butyl ester], for which the IC50 is 1.8 nM in test [1] (IC50 against the NS3/4A BMS strain in the enzyme assay, BMS strain); less than 50 nM in test [1] (IC50 range, NS3/4A BMS Strain); 43000 nM in test [2].
